Measurements taken from PMC8929364, “Metopimazine is primarily metabolized by a liver amidase in humans” (Pharmacology Research & Perspectives, 2021).

How the values were obtained:
[1] = system: human D2 receptor; design: method as in earlier work; conditions: cited from earlier work
[2] = target: T1, rhFMO3 (Homo sapiens, UniProt P31513); test: Incubation of MPZ with recombinant FMO: FMO3; assay type: in vitro ADME; conditions: 1 µM MPZ, pH 8.4
T1 construct: purchased Corning Inc
T1 sequence (P31513 1-532): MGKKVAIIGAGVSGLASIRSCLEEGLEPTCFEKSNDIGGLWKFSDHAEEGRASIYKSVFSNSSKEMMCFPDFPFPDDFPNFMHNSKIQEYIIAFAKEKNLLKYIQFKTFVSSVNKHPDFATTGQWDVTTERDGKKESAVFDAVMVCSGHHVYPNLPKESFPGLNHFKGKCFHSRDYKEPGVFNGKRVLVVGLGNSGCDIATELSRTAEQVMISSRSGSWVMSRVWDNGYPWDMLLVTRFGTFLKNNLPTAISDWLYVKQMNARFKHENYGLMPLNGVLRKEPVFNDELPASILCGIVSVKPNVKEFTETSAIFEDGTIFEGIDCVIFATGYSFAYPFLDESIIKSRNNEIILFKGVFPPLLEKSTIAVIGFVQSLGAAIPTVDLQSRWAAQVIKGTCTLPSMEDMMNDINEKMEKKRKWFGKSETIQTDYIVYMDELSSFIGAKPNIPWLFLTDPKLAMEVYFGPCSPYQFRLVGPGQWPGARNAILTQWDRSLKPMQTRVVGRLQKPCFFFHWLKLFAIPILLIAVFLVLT
Procedure: (§1) MPZ at 1.0 µM was incubated in triplicate with individual recombinant FMO (Supersomes™ for FMO 1, FMO3, and FMO5). Protein concentrations for all rFMO isoforms were 0.05 mg/ml. A positive control (benzydamine, 100 µM) was incubated for 20 min. The reaction mixture containing MPZ or FMO substrate, KPi buffer (pH 8.4), and FMO Supersomes™ was pre‐incubated at 37°C for 3–5 min. All other procedures were the same as described previously. The negative control reactions were incubated absence of NADPH.

[3] = Incubation of MPZ with human kidney microsomes (HKM); assay type: in vitro ADME; conditions: pH 8.4, NADPH, HKM 0.5 mg/ml, 60 min
Procedure: MPZ, at 1.0 and 10.0 µM, was incubated with HLM or HKM to determine the contribution of microsomal FMOs on the metabolism of MPZ.
A reaction mixture containing KPi buffer (pH 8.4), HLM or HKM (0.5 mg/ml protein) and MPZ (1.0 and 10.0 µM) was pre‐incubated for 3–5 min at 37°C. The reaction was initiated by the addition of NADPH into the reaction mixture. The reaction was conducted for 0 and 60 min. A positive control (benzydamine, 100 µM) was incubated in duplicate for 0 and 20 min. Parallel incubation was conducted by adding 1 mM methimazole, a non‐specific FMO inhibitor, under identical conditions. Heat‐inactivated microsomes (50°C for at least 5 min) was incubated under identical conditions negative control. All other procedures were the same as described previously.

[4] = target: T2, rhFMO1 (Homo sapiens, UniProt Q01740); test: Incubation of MPZ with recombinant FMO: FMO1; assay type: in vitro ADME; conditions: 1 µM MPZ, pH 8.4
T2 construct: purchased Corning Inc
T2 sequence (Q01740 1-532): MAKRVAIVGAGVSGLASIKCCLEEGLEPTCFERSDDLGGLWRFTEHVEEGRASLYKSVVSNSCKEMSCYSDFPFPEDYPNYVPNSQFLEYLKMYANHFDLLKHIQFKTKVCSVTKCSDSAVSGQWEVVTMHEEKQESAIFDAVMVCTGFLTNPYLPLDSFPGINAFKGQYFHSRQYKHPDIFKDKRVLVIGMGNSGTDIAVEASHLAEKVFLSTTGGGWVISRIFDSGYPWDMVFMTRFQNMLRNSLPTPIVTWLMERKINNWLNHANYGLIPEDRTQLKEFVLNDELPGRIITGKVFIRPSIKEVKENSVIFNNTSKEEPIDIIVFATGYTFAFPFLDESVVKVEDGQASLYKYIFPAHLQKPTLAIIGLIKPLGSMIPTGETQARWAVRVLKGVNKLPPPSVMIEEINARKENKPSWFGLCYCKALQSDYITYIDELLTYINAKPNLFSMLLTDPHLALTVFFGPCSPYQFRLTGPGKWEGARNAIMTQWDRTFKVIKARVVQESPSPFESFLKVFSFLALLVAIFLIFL
Procedure: as §1

[5] = target: T3, rhFMO5 (Homo sapiens, UniProt P49326); test: Incubation of MPZ with recombinant FMO: FMO5; assay type: in vitro ADME; conditions: 1 µM MPZ, pH 8.4
T3 construct: purchased Corning Inc
T3 sequence (P49326 1-533): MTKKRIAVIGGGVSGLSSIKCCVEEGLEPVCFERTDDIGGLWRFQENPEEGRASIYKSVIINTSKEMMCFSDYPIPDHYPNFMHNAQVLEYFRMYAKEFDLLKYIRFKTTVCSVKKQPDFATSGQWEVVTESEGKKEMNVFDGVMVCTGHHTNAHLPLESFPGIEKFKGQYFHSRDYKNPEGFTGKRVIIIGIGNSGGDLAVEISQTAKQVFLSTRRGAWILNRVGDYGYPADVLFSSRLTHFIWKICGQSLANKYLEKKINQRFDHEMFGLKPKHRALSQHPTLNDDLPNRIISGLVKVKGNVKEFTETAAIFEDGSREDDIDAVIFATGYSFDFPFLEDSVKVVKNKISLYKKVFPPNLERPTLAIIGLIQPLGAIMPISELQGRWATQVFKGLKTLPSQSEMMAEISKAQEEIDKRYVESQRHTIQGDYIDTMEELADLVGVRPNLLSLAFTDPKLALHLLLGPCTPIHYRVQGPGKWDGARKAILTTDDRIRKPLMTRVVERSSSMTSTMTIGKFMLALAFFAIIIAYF
Procedure: as §1

[6] = Incubation of MPZ in human intestine S9; assay type: in vitro ADME; conditions: 2.5 µM MPZ, human intestine S9 1 mg/ml, NADPH, 60 min
Procedure: (§2) An initial experiment was conducted with S9 fractions from liver and intestine to assess the role of liver and intestinal enzymes in the metabolism of MPZ. The reaction mixture contained 2.5 µM MPZ, pooled human liver or intestine S9 fraction (1 mg/ml S9 protein), 100 mM KPi buffer (pH 7.4). The reaction mixture was pre‐incubated for 3–5 min at 37°C in a humidified incubator filled with 5% CO2 followed by the addition of NADPH (1 mM) to initiate the reaction. The reaction was incubated for 0 and 60 min. The total percentage of organic solvent in the incubation mixture was ≤0.1%. The reactions were terminated by the addition of sample mixture of acetonitrile and ethanol (90:10, v/v). The positive control substrate, 7‐EC, was incubated in triplicate in an identical manner as MPZ for S9 fractions.
(§3) The degree of disappearance of each analyte was evaluated by comparing the PAR of analyte to IS or concentration in different sampling time points to the PAR of time zero, (t = 0, 100%). The percent of parent remaining values were calculated according to the following equation: %parentremaining=(meanconcentrationorPARateachsamplingtimepoint/meanconcentrationorPARoftimezero)×100

[7] = Incubation of MPZ in human liver S9; assay type: in vitro ADME; conditions: 2.5 µM MPZ, human liver S9 1 mg/ml, NADPH, 60 min
Procedure: as §2, §3

Structure (SMILES)	fold less potent at the human D2 receptor compared to the parent [1]	metabolism by rhFMO3 [2]	metabolite formation in HKM [3]	metabolism by rhFMO1 [4]	metabolism by rhFMO5 [5]	metabolism in human intestine S9 [6]	percent of MPZ disappeared [7]
CS(=O)(=O)c1ccc2c(c1)N(CCCN1CCC(C(=O)O)CC1)c1ccccc1S2 [MPZA, metopimazine acid]	about 200 fold	–	–	–	–	–	–
CS(=O)(=O)c1ccc2c(c1)N(CCCN1CCC(C(N)=O)CC1)c1ccccc1S2 [MPZ, metopimazine]	–	did not metabolize MPZ	did not produce any metabolites	did not metabolize MPZ	did not metabolize MPZ	virtually no metabolism	approximately 30%
